These results are taken from PubChem BioAssay (NCI).

Some test systems named below: MCF7 breast; T-47D breast; MDA-N; SK-MEL-28 melanoma; HCT-15 colon; SN12C renal; SR leukemia; CCRF-CEM leukemia; NCI-H522 lung; NCI-H460 lung; UACC-62 melanoma; ACHN renal; HOP-62 NSCLC; MDA-MB-231 breast; EKVX NSCLC; SNB-75 CNS; SK-MEL-5 melanoma; HT29 colon; MDA-MB-435; A498 renal.
Common to all, as to experiment: growth of human tumour cells (NCI), 48 h

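Method: 48-hour compound exposure of cells in 96-well plates, five concentrations, linear interpolation of endpoints. TGI marks complete inhibition of growth.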 Where only a bound is given, the exact number is not on record here.

On to `Nc1nc(Cl)cc(NCC2(CO)CCC2)n1`, for which the TGI in the assay with MCF7 breast, in the assay with T-47D breast, in the assay on MDA-N, in the assay with SK-MEL-28 melanoma, with HCT-15 colon and in the assay on SN12C renal was over 100 µM in each case. The TGI in the assay on SR leukemia, with CCRF-CEM leukemia, in the assay with NCI-H522 lung, in the assay on NCI-H460 lung, with UACC-62 melanoma and with ACHN renal was over 100 µM throughout. Moreover, the TGI in the assay on HOP-62 NSCLC, in the assay with MDA-MB-231 breast, with EKVX NSCLC, with SNB-75 CNS, in the assay on SK-MEL-5 melanoma and in the assay with HT29 colon was over 100 µM each time. Further, in the assay with MDA-MB-435, the TGI is over 100 µM.
With `CCCC(=O)N/S(=N/S(=O)(=O)c1ccc(Cl)cc1)C(Cl)(Cl)Cl` (stereo unspecified), the TGI with MCF7 breast, in the assay with T-47D breast, with MDA-N, with SK-MEL-28 melanoma, in the assay on HCT-15 colon and with SN12C renal was over 100 µM in each case. Further, the TGI in the assay on SR leukemia, in the assay on CCRF-CEM leukemia, with NCI-H460 lung, in the assay on UACC-62 melanoma, in the assay with ACHN renal and in the assay on HOP-62 NSCLC was over 100 µM throughout. For the same compound, the TGI in the assay with MDA-MB-231 breast, in the assay with EKVX NSCLC, in the assay on A498 renal, in the assay with SK-MEL-5 melanoma, in the assay with HT29 colon and in the assay on MDA-MB-435 was over 100 µM throughout.
For the compound `C[C@]12CC(c3ccccc3O1)C(C#N)C(=O)N2` (stereo partly specified), the TGI in the assay on MCF7 breast, in the assay with T-47D breast, in the assay on MDA-N, in the assay with SK-MEL-28 melanoma, in the assay with HCT-15 colon and with SN12C renal was over 100 µM in each case. Further, the TGI with SR leukemia, in the assay with CCRF-CEM leukemia, with NCI-H460 lung, in the assay on UACC-62 melanoma, in the assay on ACHN renal and in the assay with HOP-62 NSCLC was over 100 µM each time. The TGI in the assay with MDA-MB-231 breast, in the assay on EKVX NSCLC, in the assay on A498 renal, in the assay on SNB-75 CNS, in the assay on SK-MEL-5 melanoma and in the assay on HT29 colon was over 100 µM each time. For the same compound, in the assay on MDA-MB-435, the TGI was over 100 µM.
As to `COc1ccc(-c2c3c(n(C4OC(CO)C(O)C(O)C4O)c(=S)c2C#N)CC(C)(C)CC3=O)cc1` (stereo unspecified), the TGI with MCF7 breast, in the assay with T-47D breast, with MDA-N, with SK-MEL-28 melanoma, with HCT-15 colon and with SN12C renal was over 100 µM in each case. The TGI in the assay with SR leukemia, in the assay with CCRF-CEM leukemia, with NCI-H522 lung, in the assay with NCI-H460 lung, in the assay with UACC-62 melanoma and in the assay on ACHN renal was over 100 µM in each case. Besides, the TGI in the assay with HOP-62 NSCLC, in the assay with MDA-MB-231 breast, in the assay on A498 renal, in the assay on SNB-75 CNS, with SK-MEL-5 melanoma and in the assay with HT29 colon was over 100 µM throughout. The compound also displayed a TGI in the assay with MDA-MB-435 of over 100 µM.
As to `O=c1n(-c2ccccc2)c(=O)n2n1C1CCC2CC1`, the TGI in the assay on MCF7 breast, with T-47D breast, in the assay on MDA-N, with SK-MEL-28 melanoma, in the assay on HCT-15 colon and in the assay on SN12C renal was over 100 µM in each case. For the same compound, the TGI in the assay with SR leukemia, in the assay with CCRF-CEM leukemia, with NCI-H460 lung, in the assay on UACC-62 melanoma, in the assay on ACHN renal and in the assay on HOP-62 NSCLC was over 100 µM each time. The TGI in the assay on MDA-MB-231 breast, with EKVX NSCLC, in the assay on A498 renal, in the assay with SNB-75 CNS, with SK-MEL-5 melanoma and with HT29 colon was over 100 µM each time. In addition, in the assay with MDA-MB-435, the TGI was over 100 µM.
On to `CC1=NN2C(=O)CC(=O)N=C2S1`, for which the TGI in the assay on MCF7 breast, in the assay with T-47D breast, in the assay on MDA-N, with SK-MEL-28 melanoma, in the assay with HCT-15 colon and with SN12C renal was over 100 µM in each case. Besides, the TGI in the assay on SR leukemia, in the assay with CCRF-CEM leukemia, with NCI-H522 lung, in the assay with NCI-H460 lung, with UACC-62 melanoma and in the assay on ACHN renal was over 100 µM throughout. The TGI with HOP-62 NSCLC, with MDA-MB-231 breast, in the assay with EKVX NSCLC, in the assay with SNB-75 CNS, with SK-MEL-5 melanoma and with HT29 colon was over 100 µM in each case. The compound further returned a TGI with MDA-MB-435 of over 100 µM.
`C[C@@H]1C[C@@H](O)[C@@]2(O)C13CC(=O)OC(C3)[C@@H](C)[C@@]2(C)CO` (stereo partly specified): the TGI with MCF7 breast, with T-47D breast, in the assay on MDA-N, with SK-MEL-28 melanoma, in the assay with HCT-15 colon and in the assay with SN12C renal was over 100 µM throughout. Moreover, the TGI in the assay with SR leukemia, in the assay with NCI-H522 lung, in the assay on NCI-H460 lung, in the assay on UACC-62 melanoma, in the assay with ACHN renal and with HOP-62 NSCLC was over 100 µM each time. Further, the TGI in the assay with MDA-MB-231 breast, with EKVX NSCLC, in the assay on A498 renal, in the assay on SK-MEL-5 melanoma, in the assay with HT29 colon and in the assay on MDA-MB-435 was over 100 µM in each case.
With `Cc1ccc(S(=O)(=O)[N-]C2C(=O)c3ccccc3C(=O)C2[n+]2cccc(C(N)=O)c2)cc1` (stereo unspecified), the TGI in the assay with MCF7 breast, in the assay with T-47D breast, in the assay with MDA-N, in the assay on SK-MEL-28 melanoma, with HCT-15 colon and in the assay with SN12C renal was over 100 µM in each case. The TGI in the assay with SR leukemia, with CCRF-CEM leukemia, in the assay with NCI-H522 lung, in the assay with NCI-H460 lung, with UACC-62 melanoma and in the assay on ACHN renal was over 100 µM each time. Moreover, the TGI with HOP-62 NSCLC, with MDA-MB-231 breast, with EKVX NSCLC, in the assay with SNB-75 CNS, in the assay on SK-MEL-5 melanoma and in the assay with HT29 colon was over 100 µM each time. The compound also had a TGI in the assay with MDA-MB-435 of over 100 µM.
On to `COc1ccc(C2CC(=O)Oc3ccccc3O2)cc1` (stereo unspecified), for which the TGI with MCF7 breast, with T-47D breast, in the assay on MDA-N, in the assay with SK-MEL-28 melanoma, in the assay on HCT-15 colon and in the assay on SN12C renal was over 100 µM in each case. The TGI in the assay on SR leukemia is over 100 µM; in the assay with CCRF-CEM leukemia it was over 100 µM; in the assay with NCI-H522 lung it was 93.2 µM; in the assay on NCI-H460 lung, over 100 µM; in the assay with UACC-62 melanoma, over 100 µM; with ACHN renal it was over 100 µM. Moreover, the TGI with HOP-62 NSCLC, in the assay with MDA-MB-231 breast, in the assay with EKVX NSCLC, in the assay with SNB-75 CNS, in the assay with SK-MEL-5 melanoma and in the assay with HT29 colon was over 100 µM each time. In addition, the TGI with MDA-MB-435 was over 100 µM.
With `CC(C)C[C@H](NC(=O)CCc1ccccc1)B(O)O`, the TGI in the assay with MCF7 breast was over 100 µM; in the assay with T-47D breast, 43.9 µM; with MDA-N it was 7.27 µM; in the assay on SK-MEL-28 melanoma, 32.4 µM; in the assay with HCT-15 colon it was 38.1 µM; in the assay with SN12C renal, 61.5 µM. Also, the TGI in the assay with SR leukemia is 9.8 µM; in the assay on CCRF-CEM leukemia it was 7.33 µM; in the assay with NCI-H522 lung it was 31.1 µM; in the assay with NCI-H460 lung it was 52.9 µM; in the assay with UACC-62 melanoma, 72.9 µM; in the assay with ACHN renal it was over 100 µM. The TGI in the assay with HOP-62 NSCLC is 46.9 µM; in the assay on MDA-MB-231 breast, 36.2 µM; in the assay with EKVX NSCLC, over 100 µM; in the assay with A498 renal, 14 µM; with SK-MEL-5 melanoma, 22.8 µM; with HT29 colon it was 15.4 µM. For the same compound, in the assay on MDA-MB-435, the TGI was 7.79 µM.
For `CC1(C)C=C(/C=N/Nc2ccc(Br)cc2)C(C#N)=C(O)C1(C#N)C#N`, the TGI is over 100 µM with MCF7 breast; over 100 µM in the assay with T-47D breast; over 100 µM in the assay with MDA-N; over 100 µM with SK-MEL-28 melanoma; over 100 µM in the assay with SN12C renal; 75.5 µM with SR leukemia. In addition, the TGI in the assay with CCRF-CEM leukemia, in the assay on NCI-H522 lung, with NCI-H460 lung, in the assay on UACC-62 melanoma, in the assay on ACHN renal and in the assay on HOP-62 NSCLC was over 100 µM throughout. In addition, the TGI with MDA-MB-231 breast, with EKVX NSCLC, with SNB-75 CNS, with SK-MEL-5 melanoma, with HT29 colon and in the assay on MDA-MB-435 was over 100 µM each time.
